The source of these data is US20100125059A1, “1-BIARYLAZETIDINONE DERIVATIVE” (Teijin Pharma Limited, priority 2007, published 2010).

Molecules are shown by their SMILES. Where two headings read alike, the source gives them in different places. Where only a bound is given, the exact number is not on record here.

One experiment has as its system Caco-2 cells. Put plainly: Cholesterol absorption inhibition assay (in vitro), [14C] cholesterol mixed micelles. Type of experiment: cell-based. The settings on record: Homo sapiens, 24 hours, read-out: cholesterol absorption inhibitory activity; for inhibition at 10 µM: concentration of 10 μM; for inhibition at 12.5 µM: concentration of 12.5 μM. The method, then: This assay measures cholesterol absorption inhibitory activity by adding mixed micelles containing [^14C] cholesterol to cells and measuring cholesterol taken in the cells as oleic acid cholesteryl ester. The assay is conducted after Caco-2 cells are seeded on multi-well plates and cultured (culture medium: DMEM containing 10% fetal bovine serum, 1% non-essential amino acids, 1% penicillin, and 1% streptomycin) for 2 weeks. To each well, the micelle solution (in an amount required to provide the following final concentrations: 600 μM of sodium oleate, 50 μM of phosphatidyl choline, 5 mM of sodium taurocholate, 2.5 μM of cholesterol, and 2.5 μM of [^14C] cholesterol) and a test compound solution (in an amount required to provide the final concentration of 0.5 to 25 μM) or a solvent as a control are added, and incubation is started at 37° C. 24 hours later, the culture medium is removed, and the lipid component is extracted with hexane/2-propanol (3:2, v/v) and applied onto thin-layer silica gel plates. After drying, each plate is eluted with a mixture of hexane, diethyl ether, and acetic acid in a ratio of 83:16:1. The plates are photoexposed on imaging plates and analyzed using BAS-2500 (FUJIFILM). The amounts of light exposure of the areas corresponding to the cholesteryl ester are calculated. Background is measured using a blank space of the plate. Inhibition rates are calculated using values obtained by subtracting the background values from both values of the control and the test sample, respectively, in accordance with the following equation. A test value is calculated as a percentage (%) with respect to the control.
In the Equation 1, A is the control group, BG is a background, and B is the test compound.
The following results were obtained from the measurement by this method on cholesterol absorption inhibitory activity of the compounds of the present invention. The following results were obtained by the evaluation using concentrations of 10 μM and/or 12.5 μM.

Experiment [1] deals with hamsters fed a high cholesterol diet. Put plainly: Measurement of lipid lowering effect in hamsters fed a high cholesterol diet. The format is in vivo, Male Golden Syrian hamsters. The settings on record: for inhibition in vivo at 0.01 mg/kg / inhibition in vivo at 0.1 mg/kg: Mesocricetus auratus, po, 168 h, gavage once daily, 7 days. In a few lines:
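Male Golden Syrian hamsters (6/group) on 0.5% cholesterol diet, dosed by gavage once daily in corn oil at 0.01 to 10 mg/kg; serum and liver sampled 4 h after last dose. TC, TG and LDL-C measured enzymatically; effects expressed as % suppression versus control and normal-diet groups.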

Setting [2] is: read-out: serum LDL-C lowering effect (suppression rate of an increase in serum LDL-C concentration).
The mark [3] stands for this setting: dose 0.1 mg/kg, read-out: serum TG lowering effect (serum TG lowering rate).
Setting [4] is: read-out: liver TC lowering effect (suppression rate of an increase in liver TC concentration).

As to `O=C1[C@H](SC[C@H](O)c2ccc(Cl)cc2)[C@@H](c2ccc(O)cc2)N1c1ccc(-c2cccnc2)cc1` [Example 32, (3R,4R)-3-[(2R)-2-(4-chlorophenyl)-2-hydroxyethylthio]-4-(4-hydroxyphenyl)-1-[4-(pyridin-3-yl)phenyl]azetidin-2-one], in the experiment with Caco-2 cells, the inhibition at 10 µM is not below 50% and the inhibition at 12.5 µM is not below 60%. For the same compound, the inhibition in vivo at 0.01 mg/kg in experiment [1] (setting [2]) is not below 30%. For the same compound, in experiment [1] (setting [3]), the inhibition in vivo at 0.1 mg/kg was not below 20%.

As to `COc1cncc(-c2ccc(N3C(=O)[C@H](SC[C@H](O)c4ccc(F)cc4)[C@H]3c3ccc(O)cc3)cc2)c1` [Example 50, (3R,4R)-3-[(2R)-2-(4-fluorophenyl)-2-hydroxyethylthio]-4-(4-hydroxyphenyl)-1-[4-(5-methoxypyridin-3-yl)phenyl]azetidin-2-one], the inhibition at 10 µM with Caco-2 cells is not below 50%. Moreover, the inhibition in vivo at 0.1 mg/kg in experiment [1] (dose 0.1 mg/kg, read-out: serum TC lowering effect (suppression rate of an increase in serum TC concentration)) is not below 50%; in experiment [1] (setting [3]) it was not below 20%.

Consider `Cc1ccncc1-c1ccc(N2C(=O)[C@H](SC[C@H](O)c3ccc(F)cc3)[C@H]2c2ccc(O)cc2)cc1` [Example 8, (3R,4R)-3-[(2R)-2-(4-fluorophenyl)-2-hydroxyethylthio]-4-(4-hydroxyphenyl)-1-[4-(4-methylpyridin-3-yl)phenyl]azetidin-2-one], for which the inhibition at 10 µM in the experiment with Caco-2 cells is not below 50%. In experiment [1] (setting [3]), the inhibition in vivo at 0.1 mg/kg is not below 20%.

Consider `Cc1ccc(-c2ccc(N3C(=O)[C@H](SC[C@H](O)c4ccc(F)cc4)[C@H]3c3ccc(O)cc3)cc2)cn1` [Example 20, (3R,4R)-3-[(2R)-2-(4-fluorophenyl)-2-hydroxyethylthio]-4-(4-hydroxyphenyl)-1-[4-(6-methylpyridin-3-yl)phenyl]azetidin-2-one], for which the inhibition at 10 µM in the experiment on Caco-2 cells is not below 50%. Besides, the inhibition at 12.5 µM with Caco-2 cells was not below 60%. Besides, the inhibition in vivo at 0.01 mg/kg in experiment [1] (setting [4]) and in experiment [1] (setting [2]) was not below 30% each time.

On to `O=C1[C@H](SC[C@H](O)c2ccc(F)cc2)[C@@H](c2ccc(O)cc2)N1c1ccc(-c2cncc(F)c2)cc1` [Example 55, (3R,4R)-3-[(2R)-2-(4-fluorophenyl)-2-hydroxyethylthio]-1-[4-(5-fluoropyridin-3-yl)phenyl]-4-(4-hydroxyphenyl)azetidin-2-one], for which, in the experiment with Caco-2 cells, the inhibition at 10 µM was not below 50%. Moreover, the inhibition in vivo at 0.01 mg/kg in experiment [1] (setting [4]), in experiment [1] (setting [2]) and in experiment [1] (read-out: serum TC lowering effect (suppression rate of an increase in serum TC concentration)) was not below 30% throughout. Besides, the inhibition in vivo at 0.1 mg/kg in experiment [1] (setting [3]) is not below 20%. Further, in experiment [1] (Table 22, suppression rate of an increase in serum TC concentration, dose 0.1 mg/kg), the “a serum TC lowering effect at a dose of 0.1 mg/kg” value was determined as 130%.

For `N#Cc1ccc(-c2ccc(N3C(=O)[C@H](SC[C@H](O)c4ccc(F)cc4)[C@H]3c3ccc(O)cc3)cc2)cn1` [Example 9, 5-(4-{(3R,4R)-3-[(2R)-2-(4-fluorophenyl)-2-hydroxyethylthio]-4-(4-hydroxyphenyl)-2-oxoazetidinyl}phenyl)pyridine-2-carbonitrile], the inhibition at 10 µM in the experiment on Caco-2 cells was not below 50%. Also, the inhibition in vivo at 0.1 mg/kg in experiment [1] (setting [3]) was not below 20%.

On to `O=C1[C@H](SC[C@H](O)c2ccc(Cl)cc2)[C@@H](c2ccc(O)cc2)N1c1ccc(-c2cncc(C(F)(F)F)c2)cc1` [Example 86, (3R,4R)-3-[(2R)-2-(4-chlorophenyl)-2-hydroxyethylthio]-4-(4-hydroxyphenyl)-1-[4-(5-trifluoromethylpyridin-3-yl)phenyl]azetidin-2-one], for which, in the experiment on Caco-2 cells, the inhibition at 12.5 µM is not below 60%. The inhibition in vivo at 0.01 mg/kg in experiment [1] (setting [2]) was not below 30%.

Turning to `O=C1[C@H](SCCc2ccc(F)cc2)[C@@H](c2ccc(O)cc2)N1c1ccc(-c2cccnc2)cc1` [Example 5, (3R,4R)-3-[2-(4-fluorophenyl)ethylthio]-4-(4-hydroxyphenyl)-1-[4-(pyridin-3-yl)phenyl]azetidin-2-one], in the experiment on Caco-2 cells, the inhibition at 10 µM was not below 50% and the inhibition at 12.5 µM is not below 60%. The inhibition in vivo at 0.1 mg/kg in experiment [1] (setting [3]) is not below 20%.
